Key:
Assay type in all cases: cell-based, human
Conditions in all cases: 10 µM, 48 h
IGROV1 = test: NCI-60 SRB assay, IGROV1 (Ovarian Cancer)
Description: (§1) Primary anticancer assay was performed on a panel of 60 human cancer cell lines derived from nine neoplastic diseases, in accordance with the protocol of the Drug Evaluation Branch, National Cancer Institute, Bethesda, Maryland, USA[22]. Cells were incubated with tested compounds at 10 µM for 48 h. The growth percentage was evaluated spectrophotometrically using a protein binding dye, SRB. Results for each tested compound were reported as the percent of growth of treated cells when compared to untreated control cells.
(§2) To better compare the activity profile of these two series of compounds, compounds 5 and 8 were selected and then evaluated towards a panel of sixty cancer cell lines corresponding to nine different cancer types, i.e. leukaemia, melanoma, as well as lung, colon, central nervous system, ovarian, renal, prostate and breast cancers (NCI evaluation). Indeed, it is now well established that the growth inhibitory patterns of anticancer drugs against the NCI-60 cell line panel correlated well with their modes of action. For example, compounds that bind to tubulin have similar growth inhibition patterns regardless of which site on tubulin they bind[30]. […] Compounds were tested using the sulforhodamine B (SRB) assay that provides a direct cell density index. The amount of dye incorporated by the cells increases with the increase of the total protein biomass. Cells were incubated for 48 h with compounds at 10 µM concentration, then cell growth was evaluated spectrophotometrically and presented as the percent of untreated control cells. Values of the most sensitive cell lines were compared to those obtained with JMV5038 (Figure 4, for all data see SI).

SK-OV-3 = test: NCI-60 SRB assay, SK-OV-3 (Ovarian Cancer)
Description: as §1, §2

NCI-H460 = test: NCI-60 SRB assay, NCI-H460 (NSCLC)
Description: as §1, §2

NCI-H23 = test: NCI-60 SRB assay, NCI-H23 (NSCLC)
Description: as §1, §2

SNB-19 = test: NCI-60 SRB assay, SNB-19 (CNS Cancer)
Description: as §1, §2

KM12 = test: NCI-60 SRB assay, KM12 (Colon Cancer)
Description: as §1, §2

ACHN = test: NCI-60 SRB assay, ACHN (Renal Cancer)
Description: as §1, §2

LOX IMVI = test: NCI-60 SRB assay, LOX IMVI (Melanoma)
Description: as §1, §2

CAKI-1 = test: NCI-60 SRB assay, CAKI-1 (Renal Cancer)
Description: as §1, §2

A498 = test: NCI-60 SRB assay, A498 (Renal Cancer)
Description: as §1, §2

COLO 205 = test: NCI-60 SRB assay, COLO 205 (Colon Cancer)
Description: as §1, §2

SF-295 = test: NCI-60 SRB assay, SF-295 (CNS Cancer)
Description: as §1, §2

DU-145 = test: NCI-60 SRB assay, DU-145 (Prostate Cancer)
Description: as §1, §2

TK-10 = test: NCI-60 SRB assay, TK-10 (Renal Cancer);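 on Mean G% - G%: mean growth across the NCI-60 panel minus this line's growth with positive meaning more sensitive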
Description: as §1, §2

HOP-92 = test: NCI-60 SRB assay, HOP-92 (NSCLC);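 on Mean G% - G%: mean growth across the NCI-60 panel minus this line's growth with positive meaning more sensitive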
Description: as §1, §2

HT29 = test: NCI-60 SRB assay, HT29 (Colon Cancer);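 on Mean G% - G%: mean growth across the NCI-60 panel minus this line's growth with positive meaning more sensitive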
Description: as §1, §2

MDA-MB-231 = test: NCI-60 SRB assay, MDA-MB-231 (Breast Cancer);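 on Mean G% - G%: mean growth across the NCI-60 panel minus this line's growth with positive meaning more sensitive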
Description: as §1, §2

UO-31 = test: NCI-60 SRB assay, UO-31 (Renal Cancer)
Description: as §1, §2

NCI/ADR-RES = test: NCI-60 SRB assay, NCI/ADR-RES (Ovarian Cancer)
Description: as §1, §2

OVCAR-4 = test: NCI-60 SRB assay, OVCAR-4 (Ovarian Cancer)
Description: as §1, §2

SN12C = test: NCI-60 SRB assay, SN12C (Renal Cancer)
Description: as §1, §2

OVCAR-5 = test: NCI-60 SRB assay, OVCAR-5 (Ovarian Cancer)
Description: as §1, §2

SK-MEL-5 = test: NCI-60 SRB assay, SK-MEL-5 (Melanoma)
Description: as §1, §2

OVCAR-8 = test: NCI-60 SRB assay, OVCAR-8 (Ovarian Cancer)
Description: as §1, §2

786-0 = test: NCI-60 SRB assay, 786-0 (Renal Cancer)
Description: as §1, §2

MALME-3M = test: NCI-60 SRB assay, MALME-3M (Melanoma)
Description: as §1, §2

OVCAR-3 = test: NCI-60 SRB assay, OVCAR-3 (Ovarian Cancer)
Description: as §1, §2

SK-MEL-2 = test: NCI-60 SRB assay, SK-MEL-2 (Melanoma)
Description: as §1, §2

SNB-75 = test: NCI-60 SRB assay, SNB-75 (CNS Cancer)
Description: as §1, §2

HCC-2998 = test: NCI-60 SRB assay, HCC-2998 (Colon Cancer)
Description: as §1, §2

T-47D = test: NCI-60 SRB assay, T-47D (Breast Cancer)
Description: as §1, §2

SF-539 = test: NCI-60 SRB assay, SF-539 (CNS Cancer)
Description: as §1, §2

NCI-H322M = test: NCI-60 SRB assay, NCI-H322M (NSCLC)
Description: as §1, §2

C[C@@H]1NC(c2csc3ccccc23)=Nc2nc3ccccn3c2C1=O [Compound 8, (4S)-4-methyl-2-benzothiophen-3-yl-3,4-dihydro-5H-pyrido[1’,2’:1,2]imidazo[4,5-d][1,3]diazepin-5-one]
Mean G% - G% (IGROV1): 14,89% | G% (IGROV1; growth vs untreated control): 59,98% | Mean G% - G% (SK-OV-3): 7,58% | G% (SK-OV-3; growth vs untreated control): 67,29% | Mean G% - G% (NCI-H460): -10,32% | G% (NCI-H460; growth vs untreated control): 85,19% | Mean G% - G% (NCI-H23): 3,92% | G% (NCI-H23; growth vs untreated control): 70,95% | Mean G% - G% (SNB-19): -4,95% | G% (SNB-19; growth vs untreated control): 79,82% | Mean G% - G% (KM12): 4,90% | G% (KM12; growth vs untreated control): 69,97% | Mean G% - G% (ACHN): -4,72% | G% (ACHN; growth vs untreated control): 79,59% | Mean G% - G% (LOX IMVI): -18,67% | G% (LOX IMVI; growth vs untreated control): 93,54% | Mean G% - G% (CAKI-1): 39,76% | G% (CAKI-1; growth vs untreated control): 35,11% | Mean G% - G% (A498): 13,54% | G% (A498; growth vs untreated control): 61,33% | Mean G% - G% (COLO 205): -25,43% | G% (COLO 205; growth vs untreated control): 100,30% | Mean G% - G% (SF-295): -8,66% | G% (SF-295; growth vs untreated control): 83,53% | Mean G% - G% (DU-145): 2,24% | G% (DU-145; growth vs untreated control): 72,63% | Mean G% - G% (TK-10): -36,86% | G% (TK-10; growth vs untreated control): 111,73% | Mean G% - G% (HOP-92): 34,61% | G% (HOP-92; growth vs untreated control): 40,26% | Mean G% - G% (HT29): -10,58% | G% (HT29; growth vs untreated control): 85,45% | Mean G% - G% (MDA-MB-231): 6,94% | G% (MDA-MB-231; growth vs untreated control): 67,93% | Mean G% - G% (UO-31): 22,87% | G% (UO-31; growth vs untreated control): 52,00% | Mean G% - G% (NCI/ADR-RES): -2,84% | G% (NCI/ADR-RES; growth vs untreated control): 77,71% | Mean G% - G% (OVCAR-4): 0,79% | G% (OVCAR-4; growth vs untreated control): 74,08% | Mean G% - G% (SN12C): -9,24% | G% (SN12C; growth vs untreated control): 84,11% | Mean G% - G% (OVCAR-5): -32,82% | G% (OVCAR-5; growth vs untreated control): 107,69% | Mean G% - G% (SK-MEL-5): 12,92% | G% (SK-MEL-5; growth vs untreated control): 61,95% | Mean G% - G% (OVCAR-8): -9,67% | G% (OVCAR-8; growth vs untreated control): 84,54% | Mean G% - G% (786-0): -14,72% | G% (786-0; growth vs untreated control): 89,59% | Mean G% - G% (MALME-3M): -0,21% | G% (MALME-3M; growth vs untreated control): 75,08% | Mean G% - G% (OVCAR-3): -5,26% | G% (OVCAR-3; growth vs untreated control): 80,13% | Mean G% - G% (SK-MEL-2): -20,08% | G% (SK-MEL-2; growth vs untreated control): 94,95% | Mean G% - G% (SNB-75): 60,36% | G% (SNB-75; growth vs untreated control): 14,51% | Mean G% - G% (HCC-2998): -23,19% | G% (HCC-2998; growth vs untreated control): 98,06% | Mean G% - G% (T-47D): 28,96% | G% (T-47D; growth vs untreated control): 45,91% | Mean G% - G% (SF-539): -1,87% | G% (SF-539; growth vs untreated control): 76,74% | Mean G% - G% (NCI-H322M): 10,06% | G% (NCI-H322M; growth vs untreated control): 64,81%
